From PubChem BioAssay (NCI)
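Dose response: 5 concentrations. Exposure: 48 h. Format: 96-well plates. Endpoint: linear interpolation; highest concentration if not reached. TGI denotes the concentration required for complete inhibition of growth.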

Tested on: A549 NSCLC
Assay: DTP human tumour cell line panel, 48 h

Q: Which TGI does the source give for `CC(=O)[C@@H](C)C(=O)N1C(=O)OC[C@@]12[C@@H]1CC[C@@H](C1)C2(C)C` here?
A: > 100 µM

Q: With `COc1cc(-c2nc3ccccn3c2/N=C/c2cc(Br)cc(Br)c2O)ccc1O` as the molecule, how does the TGI read?
A: > 100 µM

Q: For `COC(=O)Nc1nc2ccc(S(=O)(=O)SC)cc2[nH]1`, which TGI is on record?
A: > 100 µM

Q: Which TGI does the source give for `CCN(CC)CCSc1c2cc(OC)ccc2nc2ccc(OC)cc12` here?
A: > 70.9 µM

Q: With `CO/C=C(/C(=O)OC)c1ccccc1COc1cccc(C(F)(F)F)c1` as the molecule, how does the TGI read?
A: > 100 µM

Q: For `CCOC(=O)c1ccc(NCc2ccc3oc(=O)c(-c4ccccc4)nc3c2)cc1`, which TGI is on record?
A: > 100 µM

Q: Which TGI does the source give for `C1=Cc2cc3c(c4nccc(c24)N1)OCO3` here?
A: > 41.7 µM

Q: How did the TGI turn out when `CC(C)=CCC(O)[C@](C)(O)[C@H]1[C@H](O)C[C@@]2(C)[C@@H]3CCc4cc(O)c(OC5OC(CO)C(O)C(O)C5O)cc4C3(C)C(=O)C[C@]12C` (stereo partly specified) was run?
A: > 100 µM

Q: With `C[N+]1(C)CCc2cc(O)c(O)cc2C1Cc1ccc(O)c(O)c1` (stereo unspecified) as the molecule, how does the TGI read?
A: > 100 µM

Q: Which TGI does the source give for `O=C1NC2O[C@H](CNC(=O)c3cc(Br)c[nH]3)CC2(O)N1` (mixture of isomers) here?
A: > 100 µM

Tested on: SF-268 CNS
Assay: DTP human tumour cell line panel, 48 h

Q: With `C(/C=C/Nc1ccc(Oc2ccccc2)cc1)=Nc1ccc(Oc2ccccc2)cc1` as the molecule, how does the TGI read?
A: 40.7 µM

Q: `O=C(/C=C/c1ccc2ccccc2c1)NCc1ccc(C(=O)NCCc2ccccc2)cc1` was tested. Which TGI did it give?
A: > 100 µM

Q: Which TGI does the source give for `Nc1nc(-[n+]2ccc(-c3ccncc3)cc2)nc(Cl)c1Cl` here?
A: 34.6 µM

Q: Which TGI does the source give for `CC(C)OC(=O)/C=C/C(=O)O/C=C/[N+](=O)[O-]` here?
A: 68.7 µM

Q: How did the TGI turn out when `C[C@@H](c1ccccc1)n1c(N)c(C#N)c2ccc([N+](=O)[O-])cc2c1=O` was run?
A: > 100 µM

Q: `CC1(C)OC(=O)N(c2ccccc2)C12C=Cc1cc([N+](=O)[O-])ccc1O2` (stereo unspecified) was tested. Which TGI did it give?
A: > 100 µM

Q: For `COC1=C(OC)C(=O)C(Cc2c(C)nc3sccn23)=C(C)C1=O`, which TGI is on record?
A: 37.3 µM

Q: For `CCOc1ncn(-c2ccc(NC(=S)NC3OC(CO)C(O)C(O)C3O)cc2)n1` (stereo unspecified), which TGI is on record?
A: > 100 µM

Q: For `CC1(C)/C(=C/N=O)N(O)C(C)(C)N1O`, which TGI is on record?
A: > 100 µM

Q: For `COC(=O)c1cc2c(cc1Cl)Sc1nnc(Nc3ccc(C)cc3)n1S2(=O)=O`, which TGI is on record?
A: 10.9 µM

Q: Which TGI does the source give for `N#Cc1c(-c2ccccc2)[nH]c2ccc(Cl)cc2c1=O` here?
A: > 100 µM

Q: With `N#C[C@@H](c1ccccn1)c1ncccc1[N+](=O)[O-]` as the molecule, how does the TGI read?
A: > 100 µM

Q: For `N#Cc1[nH]c(=O)n(-c2ccccc2)c1N`, which TGI is on record?
A: > 10 µM

Q: Which TGI does the source give for `COC(=O)C1=CS/C(=C2\S[C@@H]3[C@H](S2)[C@H]2C=C[C@@H]3C2)S1` here?
A: > 100 µM

Q: `CC(=O)Oc1ccc2cc(-c3ccccc3OC(C)=O)c(=O)oc2c1` was tested. Which TGI did it give?
A: > 100 µM

Q: How did the TGI turn out when `O=[N+]([O-])c1ccc(S(=O)(=O)n2c3ccc(Br)cc3c3nc4ccccc4nc32)cc1` was run?
A: > 100 µM

Q: With `COc1cc(-c2nc3ccccn3c2/N=C/c2cc(Br)cc(Br)c2O)ccc1O` as the molecule, how does the TGI read?
A: 39.7 µM

Q: Which TGI does the source give for `COC(=O)Nc1nc2ccc(S(=O)(=O)SC)cc2[nH]1` here?
A: > 100 µM

Q: For `CCN(CC)CCSc1c2cc(OC)ccc2nc2ccc(OC)cc12`, which TGI is on record?
A: 12.7 µM

Q: How did the TGI turn out when `CO/C=C(/C(=O)OC)c1ccccc1COc1cccc(C(F)(F)F)c1` was run?
A: > 100 µM

Q: `CCOC(=O)c1ccc(NCc2ccc3oc(=O)c(-c4ccccc4)nc3c2)cc1` was tested. Which TGI did it give?
A: > 100 µM

Q: With `C1=Cc2cc3c(c4nccc(c24)N1)OCO3` as the molecule, how does the TGI read?
A: 28.9 µM

Q: Which TGI does the source give for `CC(C)=CCC(O)[C@](C)(O)[C@H]1[C@H](O)C[C@@]2(C)[C@@H]3CCc4cc(O)c(OC5OC(CO)C(O)C(O)C5O)cc4C3(C)C(=O)C[C@]12C` (stereo partly specified) here?
A: > 100 µM

Q: Which TGI does the source give for `C[N+]1(C)CCc2cc(O)c(O)cc2C1Cc1ccc(O)c(O)c1` (stereo unspecified) here?
A: > 100 µM

Q: Which TGI does the source give for `O=C1NC2O[C@H](CNC(=O)c3cc(Br)c[nH]3)CC2(O)N1` (mixture of isomers) here?
A: > 100 µM

Tested on: HOP-92 NSCLC
Assay: DTP human tumour cell line panel, 48 h

Q: Which TGI does the source give for `C(/C=C/Nc1ccc(Oc2ccccc2)cc1)=Nc1ccc(Oc2ccccc2)cc1` here?
A: 51.2 µM

Q: Which TGI does the source give for `O=C(/C=C/c1ccc2ccccc2c1)NCc1ccc(C(=O)NCCc2ccccc2)cc1` here?
A: > 100 µM

Q: With `Nc1nc(-[n+]2ccc(-c3ccncc3)cc2)nc(Cl)c1Cl` as the molecule, how does the TGI read?
A: 48 µM

Q: How did the TGI turn out when `C[C@@H](c1ccccc1)n1c(N)c(C#N)c2ccc([N+](=O)[O-])cc2c1=O` was run?
A: 24 µM

Q: `CC1(C)OC(=O)N(c2ccccc2)C12C=Cc1cc([N+](=O)[O-])ccc1O2` (stereo unspecified) was tested. Which TGI did it give?
A: 86.9 µM

Q: With `CCOc1ncn(-c2ccc(NC(=S)NC3OC(CO)C(O)C(O)C3O)cc2)n1` (stereo unspecified) as the molecule, how does the TGI read?
A: > 100 µM

Q: With `CC1(C)/C(=C/N=O)N(O)C(C)(C)N1O` as the molecule, how does the TGI read?
A: > 100 µM

Q: How did the TGI turn out when `COC(=O)c1cc2c(cc1Cl)Sc1nnc(Nc3ccc(C)cc3)n1S2(=O)=O` was run?
A: 16.5 µM

Q: For `N#Cc1c(-c2ccccc2)[nH]c2ccc(Cl)cc2c1=O`, which TGI is on record?
A: 51.1 µM

Q: Which TGI does the source give for `COC(=O)C1=CS/C(=C2\S[C@@H]3[C@H](S2)[C@H]2C=C[C@@H]3C2)S1` here?
A: > 100 µM

Q: Which TGI does the source give for `O=[N+]([O-])c1ccc(S(=O)(=O)n2c3ccc(Br)cc3c3nc4ccccc4nc32)cc1` here?
A: > 100 µM

Q: With `CC(=O)[C@@H](C)C(=O)N1C(=O)OC[C@@]12[C@@H]1CC[C@@H](C1)C2(C)C` as the molecule, how does the TGI read?
A: > 100 µM

Q: How did the TGI turn out when `COc1cc(-c2nc3ccccn3c2/N=C/c2cc(Br)cc(Br)c2O)ccc1O` was run?
A: 50.8 µM

Q: For `COC(=O)Nc1nc2ccc(S(=O)(=O)SC)cc2[nH]1`, which TGI is on record?
A: 28 µM

Q: How did the TGI turn out when `CCN(CC)CCSc1c2cc(OC)ccc2nc2ccc(OC)cc12` was run?
A: 4.61 µM

Q: Which TGI does the source give for `CO/C=C(/C(=O)OC)c1ccccc1COc1cccc(C(F)(F)F)c1` here?
A: 50.5 µM

Q: `CCOC(=O)c1ccc(NCc2ccc3oc(=O)c(-c4ccccc4)nc3c2)cc1` was tested. Which TGI did it give?
A: 83 µM

Q: For `C1=Cc2cc3c(c4nccc(c24)N1)OCO3`, which TGI is on record?
A: > 100 µM

Q: `CC(C)=CCC(O)[C@](C)(O)[C@H]1[C@H](O)C[C@@]2(C)[C@@H]3CCc4cc(O)c(OC5OC(CO)C(O)C(O)C5O)cc4C3(C)C(=O)C[C@]12C` (stereo partly specified) was tested. Which TGI did it give?
A: > 100 µM

Q: `C[N+]1(C)CCc2cc(O)c(O)cc2C1Cc1ccc(O)c(O)c1` (stereo unspecified) was tested. Which TGI did it give?
A: 63.7 µM

Q: Which TGI does the source give for `O=C1NC2O[C@H](CNC(=O)c3cc(Br)c[nH]3)CC2(O)N1` (mixture of isomers) here?
A: > 100 µM
